Measured values from ChEMBL document CHEMBL4190314, “Quinoline hybrids and their antiplasmodial and antimalarial activities” (Eur J Med Chem, 2017).

Columns and labels:
Format in all cases: functional, organism-based
Plasmodium falciparum [1] = test: Antimalarial activity against chloroquine-sensitive Plasmodium falciparum NF54 infected in human type A+ erythrocytes after 48 hrs by [3H]-hypoxanthine incorporation assay
Plasmodium falciparum [2] = test: Antimalarial activity against chloroquine-sensitive Plasmodium falciparum FCH-5-C2 infected in human type A+ erythrocytes after 48 hrs by [3H]-hypoxanthine incorporation assay
Plasmodium falciparum [3] = test: Antimalarial activity against chloroquine-sensitive Plasmodium falciparum HB3 infected in human type A+ erythrocytes after 48 hrs by [3H]-hypoxanthine incorporation assay
Plasmodium falciparum [4] = test: Antimalarial activity against chloroquine-sensitive Plasmodium falciparum RF MEF3 infected in human type A+ erythrocytes after 48 hrs by [3H]-hypoxanthine incorporation assay
Plasmodium falciparum [5] = test: Antimalarial activity against chloroquine-sensitive Plasmodium falciparum Ro73 infected in human type A+ erythrocytes after 48 hrs by [3H]-hypoxanthine incorporation assay
Plasmodium falciparum [6] = test: Antimalarial activity against chloroquine-resistant Plasmodium falciparum RFCR-3 infected in human type A+ erythrocytes after 48 hrs by [3H]-hypoxanthine incorporation assay
Plasmodium falciparum [7] = test: Antimalarial activity against chloroquine-resistant Plasmodium falciparum ItG2F6 infected in human type A+ erythrocytes after 48 hrs by [3H]-hypoxanthine incorporation assay
Plasmodium falciparum [8] = test: Antimalarial activity against chloroquine-resistant Plasmodium falciparum INDO infected in human type A+ erythrocytes after 48 hrs by [3H]-hypoxanthine incorporation assay
Plasmodium falciparum [9] = test: Antimalarial activity against chloroquine-resistant Plasmodium falciparum W2 infected in human type A+ erythrocytes after 48 hrs by [3H]-hypoxanthine incorporation assay
Plasmodium falciparum [10] = test: Antimalarial activity against chloroquine-resistant Plasmodium falciparum 7G8 infected in human type A+ erythrocytes after 48 hrs by [3H]-hypoxanthine incorporation assay
Plasmodium falciparum [11] = test: Antimalarial activity against chloroquine-resistant Plasmodium falciparum W2MEF infected in human type A+ erythrocytes after 48 hrs by [3H]-hypoxanthine incorporation assay
Plasmodium falciparum [12] = test: Antimalarial activity against chloroquine-resistant Plasmodium falciparum T9/94 infected in human type A+ erythrocytes after 48 hrs by [3H]-hypoxanthine incorporation assay
Plasmodium falciparum [13] = test: Antimalarial activity against chloroquine-resistant Plasmodium falciparum K1 infected in human type A+ erythrocytes after 48 hrs by [3H]-hypoxanthine incorporation assay
Plasmodium falciparum [14] = test: Antimalarial activity against chloroquine-sensitive Plasmodium falciparum Nigerian infected in human red blood cells after 48 hrs by [3H]-hypoxanthine incorporation assay
Plasmodium falciparum [15] = test: Antimalarial activity against chloroquine-resistant Plasmodium falciparum FcB1 infected in human red blood cells after 48 hrs by [3H]-hypoxanthine incorporation assay
Plasmodium falciparum [16] = test: Antimalarial activity against chloroquine-resistant Plasmodium falciparum FcM29 infected in human red blood cells after 48 hrs by [3H]-hypoxanthine incorporation assay

Row | SMILES | IC50 (Plasmodium falciparum [1]) | IC50 (Plasmodium falciparum [2]) | IC50 (Plasmodium falciparum [3]) | IC50 (Plasmodium falciparum [4]) | IC50 (Plasmodium falciparum [5]) | IC50 (Plasmodium falciparum [6]) | IC50 (Plasmodium falciparum [7]) | IC50 (Plasmodium falciparum [8]) | IC50 (Plasmodium falciparum [9]) | IC50 (Plasmodium falciparum [10]) | IC50 (Plasmodium falciparum [11]) | IC50 (Plasmodium falciparum [12]) | IC50 (Plasmodium falciparum [13]) | IC50 (Plasmodium falciparum [14]) | IC50 (Plasmodium falciparum [15]) | IC50 (Plasmodium falciparum [16])
1 | Clc1ccc2c(N[C@@H]3CCCC[C@H]3Nc3ccnc4cc(Cl)ccc34)ccnc2c1 | 0.006 µM | 0.004 to 0.013 µM | 0.004 µM | 0.004 to 0.013 µM | 0.004 to 0.013 µM | 0.004 to 0.013 µM | 0.004 to 0.013 µM | 0.004 to 0.013 µM | 0.01 µM | 0.004 to 0.013 µM | 0.004 to 0.013 µM | 0.004 to 0.013 µM | 0.013 µM |  |  | 
2 | Fc1ccc(C(/C=C/C=C(\c2ccc(F)cc2)N2CCN(c3ccnc4cc(Cl)ccc34)CC2)=[N+]2CCN(c3ccnc4cc(Cl)ccc34)CC2)cc1 |  |  |  |  |  |  |  |  |  |  |  |  |  | 0.35 µM | 0.444 µM | 0.468 µM
